In patent EP2758401B1 (Bayer Intellectual Property GmbH, priority 2011, dated 2013):
Counter-ions that a name gives are not always drawn.

What was measured:
MKNK1 [1] = biological target: T1, MKNK1 (Homo sapiens, UniProt Q9BUB5, T385D); assay: MKNK1 kinase assay (TR-FRET); type: biochemical; conditions: ATP final conc. 10 µM; 15 min pre-incubation; reaction time 45 min at 22°C
T1 construct: GST (N); purchased Carna Biosciences 02-145; host or cells: insect cells (baculovirus expression system)
Experimental: MKNK1-inhibitory activity of compounds of the present invention was quantified employing the MKNK1 TR-FRET assay as described in the following paragraphs.
As substrate for the kinase reaction the biotinylated peptide biotin-Ahx-[…] (C-terminus in amide form) was used which can be purchased e.g. form the company Biosyntan (Berlin-Buch, Germany).
For the assay 50 nL of a 100fold concentrated solution of the test compound in DMSO was pipetted into a black low volume 384well microtiter plate (Greiner Bio-One, Frickenhausen, Germany), 2 µL of a solution of MKNK1 in aqueous assay buffer [50 mM HEPES pH 7.5, 5 mM magnesium chloride, 1.0 mM dithiothreitol, 0.005% (v/v) Nonidet-P40 (Sigma)] was added and the mixture was incubated for 15 min at 22°C to allow pre-binding of the test compounds to the enzyme before the start of the kinase reaction. Then the kinase reaction was started by the addition of 3 µL of a solution of adenosine-tri-phosphate (ATP, 16.7 µM => final conc. in the 5 µL assay volume is 10 µM) and substrate (0.1 µM => final conc. in the 5 µL assay volume is 0.06 µM) in assay buffer and the resulting mixture was incubated for a reaction time of 45 min at 22°C.
The resulting mixture was incubated for 1 h at 22°C to allow the formation of complex between the phosphorylated biotinylated peptide and the detection reagents. Subsequently the amount of phosphorylated substrate was evaluated by measurement of the resonance energy transfer from the Eu-chelate to the streptavidine-XL. Therefore, the fluorescence emissions at 620 nm and 665 nm after excitation at 350 nm were measured in a TR-FRET reader, e.g. a Rubystar (BMG Labtechnologies, Offenburg, Germany) or a Viewlux (Perkin-Elmer). The ratio of the emissions at 665 nm and at […] was taken as the measure for the amount of phosphorylated substrate. The data were normalised (enzyme reaction without inhibitor = 0 % inhibition, all other assay components but no enzyme = 100 % inhibition). […] Table 1: MKNK1 IC50s

MKNK1 [2] = biological target: T1, MKNK1; assay: MKNK1 kinase high ATP assay (TR-FRET); type: biochemical; conditions: ATP final conc. 2 mM; 15 min pre-incubation; reaction time 30 min at 22°C
Experimental: MKNK1-inhibitory activity at high ATP of compounds of the present invention after their preincubation with MKNK1 was quantified employing the TR-FRET-based MKNK1 high ATP assay as described in the following paragraphs.
As substrate for the kinase reaction the biotinylated peptide biotin-Ahx-[…] (C-terminus in amide form) was used, which can be purchased e.g. from the company Biosyntan (Berlin-Buch, Germany).
For the assay 50 nL of a 100fold concentrated solution of the test compound in DMSO was pipetted into a black low volume 384well microtiter plate (Greiner Bio-One, Frickenhausen, Germany), 2 µL of a solution of MKNK1 in aqueous assay buffer [50 mM HEPES pH 7.5, 5 mM magnesium chloride, 1.0 mM dithiothreitol, 0.005% (v/v) Nonidet-P40 (Sigma)] was added and the mixture was incubated for 15 min at 22°C to allow pre-binding of the test compounds to the enzyme before the start of the kinase reaction. Then the kinase reaction was started by the addition of 3 µL of a solution of adenosine-tri-phosphate (ATP, 3.3 mM => final conc. in the 5 µL assay volume is 2 mM) and substrate (0.1 µM => final conc. in the 5 µL assay volume is 0.06 µM) in assay buffer and the resulting mixture was incubated for a reaction time of 30 min at 22°C. The concentration of MKNK1 was adjusted depending of the activity of the enzyme lot and was chosen appropriate to have the assay in the linear range, typical concentrations were in the range of 0.003 µg/mL. The reaction was stopped by the addition of 5 µL of a solution of TR-FRET detection reagents (5 nM streptavidine-XL665 [Cisbio Bioassays, Codolet, France] and 1 nM anti-ribosomal protein S6 (pSer236)-antibody from Invitrogen [# 44921G] and 1 nM LANCE EU-W1024 labeled ProteinG [Perkin-Elmer, product no. AD0071]) in an aqueous EDTA-solution (100 mM EDTA, 0.1 % (w/v) bovine serum albumin in 50 mM HEPES pH 7.5).
The resulting mixture was incubated for 1 h at 22°C to allow the formation of complex between the phosphorylated biotinylated peptide and the detection reagents. Subsequently the amount of phosphorylated substrate was evaluated by measurement of the resonance energy transfer from the Eu-chelate to the streptavidine-XL. Therefore, the fluorescence emissions at 620 nm and 665 nm after excitation at 350 nm were measured in a TR-FRET reader, e.g. a Rubystar (BMG Labtechnologies, Offenburg, Germany) or a Viewlux (Perkin-Elmer). The ratio of the emissions at 665 nm and at […] was taken as the measure for the amount of phosphorylated substrate. The data were normalised (enzyme reaction without inhibitor = 0 % inhibition, all other assay components but no enzyme = 100 % inhibition).

T1 sequence (Q9BUB5 1-424 isoform Q9BUB5-2 T344D): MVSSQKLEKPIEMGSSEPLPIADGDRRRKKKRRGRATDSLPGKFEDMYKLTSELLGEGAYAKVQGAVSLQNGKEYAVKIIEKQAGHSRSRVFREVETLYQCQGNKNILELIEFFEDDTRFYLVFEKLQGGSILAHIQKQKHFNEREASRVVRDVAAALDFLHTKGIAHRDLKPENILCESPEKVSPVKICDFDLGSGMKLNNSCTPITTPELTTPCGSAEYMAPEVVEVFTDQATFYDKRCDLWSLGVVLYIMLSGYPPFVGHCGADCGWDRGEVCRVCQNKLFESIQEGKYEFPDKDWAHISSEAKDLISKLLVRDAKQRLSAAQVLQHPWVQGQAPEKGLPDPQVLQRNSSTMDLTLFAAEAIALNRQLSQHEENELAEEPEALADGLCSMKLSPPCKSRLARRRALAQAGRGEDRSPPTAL

Structure (SMILES) | IC50 (MKNK1 [1]) | IC50 (MKNK1 [2])
NCCCOc1ccc2ncc(-c3cc4ccccc4o3)n2n1 [Example 11, 3-{[3-(1-Benzofuran-2-yl)imidazo[1,2-b]pyridazin-6-yl]oxy}propan-1-amine] | 8 nM | 24 nM
NCCOc1ccc2ncc(-c3cc4ccccc4o3)n2n1 [Example 12, 2-{[3-(1-Benzofuran-2-yl)imidazo[1,2-b]pyridazin-6-yl]oxy}ethanamine] | 10 nM | 27 nM
CC(C)(N)CCOc1ccc2ncc(-c3cc4ccccc4o3)n2n1 [Example 14, 4-{[3-(1-Benzofuran-2-yl)imidazo[1,2-b]pyridazin-6-yl]oxy}-2-methylbutan-2-amine] | 20 nM | 39 nM
C[C@H](CN)Oc1ccc2ncc(-c3cc4cc(Cl)ccc4o3)n2n1 [Example 15, (2R)-2-{[3-(5-Chloro-1-benzofuran-2-yl)imidazo[1,2-b]pyridazin-6-yl]oxy}-propan-1-amine] | 36 nM | 197 nM
NC[C@H](Oc1ccc2ncc(-c3cc4ccccc4o3)n2n1)c1ccccc1 [Example 16, (2R)-2-{[3-(1-Benzofuran-2-yl)imidazo[1,2-b]pyridazin-6-yl]oxy}-2-phenylethan-amine] | 26 nM | 49 nM
N[C@H](COc1ccc2ncc(-c3cc4ccccc4o3)n2n1)c1ccccc1 [Example 17, (1S)-2-{[3-(1-Benzofuran-2-yl)imidazo[1,2-b]pyridazin-6-yl]oxy}-1-phenylethan-amine] | 6 nM | 10 nM
N[C@@H](COc1ccc2ncc(-c3cc4ccccc4o3)n2n1)c1ccccc1 [Example 18, (1R)-2-{[3-(1-Benzofuran-2-yl)imidazo[1,2-b]pyridazin-6-yl]oxy}-1-phenyl-ethanamine] | 22 nM | 33 nM
N[C@H](COc1ccc2ncc(-c3cc4cc(Cl)ccc4o3)n2n1)c1ccccc1 [Example 19, (1S)-2-{[3-(5-Chloro-1-benzofuran-2-yl)imidazo[1,2-b]pyridazin-6-yl]oxy}-1-phenylethanamine] | 25 nM | 111 nM
NC[C@H]1C[C@H](Oc2ccc3ncc(-c4cc5ccccc5o4)n3n2)C1 [Example 20, 1-(trans-3-{[3-(1-Benzofuran-2-yl)imidazo[1,2-b]pyridazin-6-yl]oxy}cyclobutyl)-methanamine] | 4 nM | 6 nM
N[C@H]1C[C@H](COc2ccc3ncc(-c4cc5ccccc5o4)n3n2)C1 [Example 22, trans-3-({[3-(1-Benzofuran-2-yl)imidazo[1,2-b]pyridazin-6-yl]oxy}methyl)cyclobutanamine] | 6 nM | 17 nM
N[C@H]1CCC[C@@H]1Oc1ccc2ncc(-c3cc4ccccc4o3)n2n1 [Example 24, (1S,2S)-2-{[3-(1-Benzofuran-2-yl)imidazo[1,2-b]pyridazin-6-yl]oxy}cyclopentan-amine] | 10 nM | 19 nM
N[C@H]1CCC[C@H]1Oc1ccc2ncc(-c3cc4ccccc4o3)n2n1 [Example 25, (1S,2R)-2-{[3-(1-Benzofuran-2-yl)imidazo[1,2-b]pyridazin-6-yl]oxy}cyclopentan-amine salt with formic acid] | 7 nM | 22 nM
NCC(Cc1ccccc1)Oc1ccc2ncc(-c3cc4ccccc4o3)n2n1 (centres unmarked) [Example 26, 2-{[3-(1-Benzofuran-2-yl)imidazo[1,2-b]pyridazin-6-yl]oxy}-3-phenylpropan-1-amine salt with formic acid] | 15 nM | 25 nM
NCC(Oc1ccc2ncc(-c3cc4ccccc4o3)n2n1)C1CC1 (centres unmarked) [Example 30, 2-{[3-(1-Benzofuran-2-yl)imidazo[1,2-b]pyridazin-6-yl]oxy}-2-cyclopropylethan-amine] | 41 nM | 75 nM
NCC(CN)Oc1ccc2ncc(-c3cc4ccccc4o3)n2n1 [Example 34, 2-{[3-(1-Benzofuran-2-yl)imidazo[1,2-b]pyridazin-6-yl]oxy}propane-1,3-diamine] | 39 nM | 92 nM
NCC(Oc1ccc2ncc(-c3cc4ccccc4o3)n2n1)C1CCOC1 (centres unmarked) [Example 35, 2-{[3-(1-Benzofuran-2-yl)imidazo[1,2-b]pyridazin-6-yl]oxy}-2-(tetrahydrofuran-3-yl)ethanamine] | 32 nM | 52 nM
N[C@H]1C[C@H](Oc2ccc3ncc(-c4cc5c(F)cccc5o4)n3n2)C1 [Example 36, trans-3-{[3-(4-Fluoro-1-benzofuran-2-yl)imidazo[1,2-b]pyridazin-6-yl]oxy}-cyclobutanamine] | 1 nM | 2 nM
N[C@H]1C[C@H](Oc2ccc3ncc(-c4cc5cc(Cl)ccc5o4)n3n2)C1 [Example 37, trans-3-{[3-(5-Chloro-1-benzofuran-2-yl)imidazo[1,2-b]pyridazin-6-yl]oxy}-cyclobutanamine] | 4 nM | 5 nM
COc1ccc2oc(-c3cnc4ccc(O[C@H]5C[C@H](N)C5)nn34)cc2c1 [Example 38, trans-3-{[3-(5-Methoxy-1-benzofuran-2-yl)imidazo[1,2-b]pyridazin-6-yl]oxy}-cyclobutanamine] | 3 nM | 6 nM
N[C@H]1C[C@H](Oc2ccc3ncc(-c4cc5cc(F)ccc5o4)n3n2)C1 [Example 39, trans-3-{[3-(5-Fluoro-1-benzofuran-2-yl)imidazo[1,2-b]pyridazin-6-yl]oxy}-cyclobutanamine] | 3 nM | 6 nM
CC(CN)COc1ccc2ncc(-c3cc4ccccc4o3)n2n1 (centres unmarked) [Example 40, 3-{[3-(1-Benzofuran-2-yl)imidazo[1,2-b]pyridazin-6-yl]oxy}-2-methylpropan-1-amine] | 9 nM | 18 nM
COc1cccc2oc(-c3cnc4ccc(OCC(N)C5CC5)nn34)cc12 (centres unmarked) [Example 41, 1-Cyclopropyl-2-{[3-(4-methoxy-1-benzofuran-2-yl)imidazo[1,2-b]pyridazin-6-yl]oxy}ethanamine] | 12 nM | 27 nM
C[C@@H](N)COc1ccc2ncc(-c3cc4ccccc4o3)n2n1 [Example 42, (2R)-1-{[3-(1-Benzofuran-2-yl)imidazo[1,2-b]pyridazin-6-yl]oxy}propan-2-amine] | 15 nM | 43 nM
C[C@@H](N)COc1ccc2ncc(-c3cc4cc(Cl)ccc4o3)n2n1 [Example 43, (2R)-1-{[3-(5-Chloro-1-benzofuran-2-yl)imidazo[1,2-b]pyridazin-6-yl]oxy}-propan-2-amine] | 33 nM | 62 nM
NCC1(COc2ccc3ncc(-c4cc5ccccc5o4)n3n2)COC1 [Example 44, 1-[3-({[3-(1-Benzofuran-2-yl)imidazo[1,2-b]pyridazin-6-yl]oxy}methyl)oxetan-3-yl]methanamine] | 52 nM | 63 nM
